Earlier results in patent US7560120B2, “Vehicles for delivery of biologically active substances” (University of Tennessee Research Foundation, priority 2002, dated 2009).
Counter-ions that a name gives are not always drawn. Like-named read-outs stand apart in the source and are kept apart here.

What was measured:
[1] = tested on: Rat; conditions: oral
[2] = not given; remark: listed apart in the source
[3] = tested on: Rat; conditions: in vivo, sc

Structure (SMILES)	Viscosity (cps) at 25° C. [cps]	LD50 [1] [mg/kg]	Water Solubility at 25° C. (g/100 ml) [2] [g/100 ml]	LD50 [3] [mg/kg]
CCCCCCOC(=O)CC(CC(=O)OCCCCCC)(OC(C)=O)C(=O)OCCCCCC [A-6, Acetyltri-n-hexyl Citrate]	36	20000		
CCCCOC(=O)CC(CC(=O)OCCCC)(OC(C)=O)C(=O)OCCCC [ATBC, Acetyl Tributyl Citrate]	33	>25000	<0.1	
CCOC(=O)CC(CC(=O)OCC)(OC(C)=O)C(=O)OCC [ATEC, acetyl triethyl citrate]	54	7000		
CCCCCCOC(=O)CC(CC(=O)OCCCCCC)(OC(=O)CCC)C(=O)OCCCCCC [B-6, Butyryltri-n-hexyl Citrate]	28	2000		
CCCCOC(=O)CC(O)(CC(=O)OCCCC)C(=O)OCCCC [TBC, Tributyl Citrate]	32	>30000	<0.1	
CCOC(=O)CC(O)(CC(=O)OCC)C(=O)OCC [TEC, triethyl citrate]	35			6600
